# Experimental data reported in publication PMC3461104 (Journal of medicinal chemistry, 2012).
# Columns and labels:
# human PBMCs [1] = assay: Immunoassays for cytokines in human PBMCs; type: cell-based; conditions: hPBMC stimulated 12 h with graded concentrations
# human TLR8 = target: T1, human TLR8 (Homo sapiens, UniProt Q9NR97); assay: Human TLR8-specific HEK-Blue reporter gene assay; type: cell-based; conditions: human TLR8-transfected HEK293 cells, NF-κB reporter
# T1 sequence (Q9NR97 27-1041): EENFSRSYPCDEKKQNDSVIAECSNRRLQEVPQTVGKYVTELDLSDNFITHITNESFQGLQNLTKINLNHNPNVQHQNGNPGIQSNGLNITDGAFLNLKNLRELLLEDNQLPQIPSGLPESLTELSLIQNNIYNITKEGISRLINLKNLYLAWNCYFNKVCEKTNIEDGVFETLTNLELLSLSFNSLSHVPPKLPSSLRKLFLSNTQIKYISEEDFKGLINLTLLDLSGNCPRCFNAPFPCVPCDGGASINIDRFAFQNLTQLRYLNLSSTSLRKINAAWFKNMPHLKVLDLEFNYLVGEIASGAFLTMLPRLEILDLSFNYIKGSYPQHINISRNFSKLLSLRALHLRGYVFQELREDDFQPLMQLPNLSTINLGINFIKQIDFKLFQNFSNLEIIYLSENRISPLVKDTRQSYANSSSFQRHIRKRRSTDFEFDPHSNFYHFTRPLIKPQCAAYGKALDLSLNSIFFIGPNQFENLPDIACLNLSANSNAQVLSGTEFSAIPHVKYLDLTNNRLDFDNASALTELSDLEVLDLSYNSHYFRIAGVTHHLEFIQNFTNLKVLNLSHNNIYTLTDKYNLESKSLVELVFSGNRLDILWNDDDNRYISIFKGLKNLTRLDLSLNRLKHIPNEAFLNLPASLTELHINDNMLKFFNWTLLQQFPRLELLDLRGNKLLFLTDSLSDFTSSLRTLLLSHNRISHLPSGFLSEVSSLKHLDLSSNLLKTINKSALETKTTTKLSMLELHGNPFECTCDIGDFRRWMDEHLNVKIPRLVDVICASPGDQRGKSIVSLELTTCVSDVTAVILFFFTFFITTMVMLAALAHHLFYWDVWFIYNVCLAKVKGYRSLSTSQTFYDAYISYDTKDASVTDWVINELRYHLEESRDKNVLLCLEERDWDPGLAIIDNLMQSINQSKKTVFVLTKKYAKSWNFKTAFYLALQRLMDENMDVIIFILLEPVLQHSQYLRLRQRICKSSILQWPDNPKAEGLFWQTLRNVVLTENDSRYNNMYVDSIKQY
# human PBMCs [2] = assay: Transcriptomal profiling in human PBMCs; type: cell-based; conditions: human PBMC, 10 μg/mL, two hours, fold change threshold 2.0
# NF-κB = conditions: previously observed; cited from earlier work
# [3] = cited from earlier work
# [4] = previously observed; cited from earlier work
SMILES,dose-response profile (area-under the-curve) remark (human TLR8),proinflammatory cytokine induction (human PBMCs [1]),further results
"Cc1ncc(CO)c2c(Nc3ccccn3)c(NCc3ccccc3)oc12 [Compound 28, (2-(benzylamino)-7-methyl-3-(pyridin-2-ylamino)furo[2,3-c]pyridin-4-yl)methanol]",–,"none of the furo[2,3-c]pyridines showed any proinflammatory cytokine induction",–
"Cc1ncc(CO)c2c(Nc3ccccc3)c(NCc3ccccc3)oc12 [Compound 36, (2-(benzylamino)-7-methyl-3-(phenylamino)furo[2,3-c]pyridin-4-yl)methanol]",Very low AUC,–,–
"CCCCNc1oc2c(C)ncc(CO)c2c1Nc1ccccn1 [Compound 37a, (2-(butylamino)-7-methyl-3-(pyridin-2-ylamino)furo[2,3-c]pyridin-4-yl)methanol]",–,"none of the furo[2,3-c]pyridines showed any proinflammatory cytokine induction",–
"CCCCCNc1oc2c(C)ncc(CO)c2c1Nc1ccccn1 [Compound 37b, (7-methyl-2-(pentylamino)-3-(pyridin-2-ylamino)furo[2,3-c]pyridin-4-yl)methanol]",–,"none of the furo[2,3-c]pyridines showed any proinflammatory cytokine induction",chemokine ligand gene expression (human PBMCs [2]): upregulated several chemokine ligand (both CXCL and CCL) genes; transcriptional signatures of inflammation (human PBMCs [2]): no transcriptional signatures of inflammation
"CCCC(C)Nc1oc2c(C)ncc(CO)c2c1Nc1ccccn1 (stereo not drawn) [Compound 37d, (7-methyl-2-(pentan-2-ylamino)-3-(pyridin-2-ylamino)furo[2,3-c]pyridin-4-yl)methanol]",Low AUC,–,–
"Cc1ncc(CO)c2c(Nc3ccccn3)c(NC[Si](C)(C)C)oc12 [Compound 37f, (7-methyl-3-(pyridin-2-ylamino)-2-(((trimethylsilyl)methyl)amino)furo[2,3-c]pyridin-4-yl)methanol]",–,"none of the furo[2,3-c]pyridines showed any proinflammatory cytokine induction",chemokine ligand gene expression (human PBMCs [2]): upregulated several chemokine ligand (both CXCL and CCL) genes; transcriptional signatures of inflammation (human PBMCs [2]): no transcriptional signatures of inflammation
"Cc1ncc(CO)c2c(Nc3ccccn3)c(NCCC(=O)OC(C)(C)C)oc12 [Compound 37i, tert-butyl 3-((4-(hydroxymethyl)-7-methyl-3-(pyridin-2-ylamino)furo[2,3-c]pyridin-2-yl)amino)propanoate]",Low AUC,–,–
"Cc1ncc(CO)c2c(Nc3ccccn3)c(N[C@@H](C)c3ccccc3)oc12 [Compound 37m, (S)-(7-methyl-2-((1-phenylethyl)amino)-3-(pyridin-2-ylamino)furo[2,3-c]pyridin-4-yl)methanol]",Very low AUC,–,–
"Clc1ccc2c(NCCCCNc3ccnc4cc(Cl)ccc34)ccnc2c1 [Compound 41, 7-chloro-N-(4-(7-chloroquinolin-4-ylamino)butyl) quinolin-4-amine]",–,–,NF-κB transactivation (NF-κB): potent NF-κB transactivation; adjuvantic activity [3]: potent adjuvant; proinflammatory cytokine induction [4]: unaccompanied by any proinflammatory cytokine induction

# Now from value to compound, other results behind:
dose-response profile (area-under the-curve) remark (human TLR8),SMILES,proinflammatory cytokine induction (human PBMCs [1]),further results
Low AUC,"CCCCCNc1oc2c(C)ncc(CO)c2c1Nc1ccccc1 [Compound 38a, (7-methyl-2-(pentylamino)-3-(phenylamino)furo[2,3-c]pyridin-4-yl)methanol]",–,–
Low AUC,"CCCCCNc1oc2c(C)ncc(CO)c2c1Nc1cccc(F)c1 [Compound 38b, (3-((3-fluorophenyl)amino)-7-methyl-2-(pentylamino)furo[2,3-c]pyridin-4-yl) methanol]",–,–
Low AUC,"CCCCCNc1oc2c(C)ncc(CO)c2c1Nc1cccc([N+](=O)[O-])c1 [Compound 38c, (7-methyl-3-((3-nitrophenyl)amino)-2-(pentylamino)furo[2,3-c]pyridin-4-yl)methanol]",–,–
